The record followed here is patent US11512079B2, “Heterocycle substituted pyridine derivative antifungal agents” (Amplyx Pharmaceuticals, Inc., priority 2017, dated 2022).

Values after ≈ are worked out from the molar mass of the structure shown.

Common to all, as to assay type: cell-based
For assay [1], the system named is Cryptococcus neoformans H99. As to the kind of experiment: In vitro antifungal assay (Example IX), microdilution broth, MIC. The conditions noted are these: minimum inhibitory concentration (≥50% inhibition), 35° C., 72 h, RPMI1640. In short, it runs like this: (§1)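 CLSI broth microdilution in RPMI1640 with 2.5×10^3 cells/mL and final compound concentrations of 2-0.0019 μg/mL (1% DMSO). C. albicans 90028 plates were incubated at 35° C. for 40-48 h and C. neoformans H99 for 72 h. MIC was read as minimum inhibitory concentration, verified at 600 nm.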

For another assay, the system named is Candida albicans 90028. Described as above. As to conditions: minimum inhibitory concentration (≥50% inhibition), 35° C., 40-48 h, RPMI1640. Put shortly: as §1
Assay [2] concerns Rhizomucor pusillus 46342. The assay is described as follows: In vitro antifungal assay (Example IX), microdilution broth, MEC. As to conditions: minimum effective concentration (shortening of hyphae), 35° C., 40-48 h, RPMI1640. Put shortly:
(§2)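 Spore suspensions of A. fumigatus and R. pusillus adjusted to 1-2×10^4 spores/mL in RPMI1640 and exposed to compound dilutions prepared in DMSO, by broth microdilution. MEC taken as the lowest concentration shortening hyphae versus DMSO control wells, read as for echinocandins.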

In assay [3] the test system is Aspergillus fumigatus MYA3626. The assay is described as above. The conditions noted are these: minimum effective concentration (shortening of hyphae), 35° C., 40-48 h, RPMI1640. In short, it runs like this:
as §2

The test system of another assay is Cryptococcus gattii. As to the kind of experiment: In vitro antifungal assay (Example IX), microdilution broth, MIC. The conditions noted are these: minimum inhibitory concentration (≥50% inhibition), 35° C., 72 h (Cryptococcus), RPMI1640. In short, it runs like this:
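Broth microdilution in RPMI1640 with 2.5×10^3 cells/mL inoculum; final compound concentrations were 2–0.0019 μg/mL, with 1% DMSO. Cryptococcus plates were incubated at 35 °C for 72 h, and growth was read at 600 nm to give the MIC.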

For the molecule `CCn1cc(Cc2ccc(Cc3cc(-c4cccnc4N)on3)cc2)cn1` [compound 12, 3-(3-(4-((1-ethyl-1H-pyrazol-4-yl)methyl)benzyl)isoxazol-5-yl)pyridin-2-amine], the MIC (in assay [1]; in the assay on Candida albicans 90028; against Cryptococcus gattii) was 0.1 to 1 µg/mL (≈ 0.278 to 2.78 µM) throughout. Besides, the values for the minimal effective concentration in assay [2] and in assay [3] were over 1 µg/mL and 0.01 to 0.1 µg/mL, respectively.
On to `Nc1ncccc1-c1cc(Cc2ccc(Cc3cnoc3)cc2)no1` [compound 14, 3-(3-(4-(isoxazol-4-ylmethyl)benzyl)isoxazol-5-yl)pyridin-2-amine], for which the MIC (in assay [1]; in the assay with Candida albicans 90028; against Cryptococcus gattii) was 0.1 to 1 µg/mL (≈ 0.301 to 3.01 µM) each time. Moreover, the minimal effective concentration lay in the range of 0.1 to 1 µg/mL in assay [2] and 0.01 to 0.1 µg/mL in assay [3].
For `Nc1ncccc1-c1cc(Cc2ccc(Cc3cccc(F)n3)cc2)no1` [compound 15, 3-(3-(4-((6-fluoropyridin-2-yl)methyl)benzyl)isoxazol-5-yl)pyridin-2-amine], the MIC (in assay [1]; in the assay on Candida albicans 90028; with Cryptococcus gattii) was 0.01 to 0.1 µg/mL (≈ 0.0277 to 0.277 µM) throughout. The minimal effective concentration is 0.1 to 1 µg/mL in assay [2] and at most 0.01 µg/mL in assay [3].
Take `Nc1ncccc1-c1cc(Cc2ccc(CC3=CCCC3)cc2)no1` [compound 17, 3-(3-(4-(cyclopent-1-en-1-ylmethyl)benzyl)isoxazol-5-yl)pyridin-2-amine]: the MIC (in assay [1]; in the assay on Candida albicans 90028; against Cryptococcus gattii) was 0.01 to 0.1 µg/mL (≈ 0.0302 to 0.302 µM) in each case. Also, the minimal effective concentration in assay [2] lay in the range of 0.1 to 1 µg/mL; in assay [3], 0.01 to 0.1 µg/mL.
On to `Nc1ncccc1-c1cc(Cc2ccc(CCc3ccccc3)cc2)no1` [compound 18, 3-(3-(4-phenethylbenzyl)isoxazol-5-yl)pyridin-2-amine], for which the MIC in assay [1] lay in the range of 0.1 to 1 µg/mL (≈ 0.281 to 2.81 µM); against Candida albicans 90028 it was 0.01 to 0.1 µg/mL (≈ 0.0281 to 0.281 µM); in the assay with Cryptococcus gattii, 0.1 to 1 µg/mL (≈ 0.281 to 2.81 µM). Moreover, the minimal effective concentration in assay [2] fell in the range of 0.1 to 1 µg/mL; in assay [3], 0.01 to 0.1 µg/mL.
`Nc1ncccc1-c1cc(Cc2ccc(Cc3ccnc(F)c3)cc2)no1` [compound 19, 3-(3-(4-((2-fluoropyridin-4-yl)methyl)benzyl)isoxazol-5-yl)pyridin-2-amine]: the minimum inhibitory concentration (MIC) (in assay [1]; in the assay on Candida albicans 90028; in the assay with Cryptococcus gattii) was 0.01 to 0.1 µg/mL (≈ 0.0277 to 0.277 µM) throughout. Besides, the results for the minimal effective concentration in assay [2] and in assay [3] were 0.1 to 1 µg/mL and 0.01 to 0.1 µg/mL, respectively.
`Nc1ncccc1-c1cc(Cc2ccc(Cc3ccnc(F)c3F)cc2)no1` [compound 20, 3-(3-(4-((2,3-difluoropyridin-4-yl)methyl)benzyl)isoxazol-5-yl)pyridin-2-amine]: the minimum inhibitory concentration (MIC) in assay [1] is 0.01 to 0.1 µg/mL (≈ 0.0264 to 0.264 µM); with Candida albicans 90028, 0.1 to 1 µg/mL (≈ 0.264 to 2.64 µM); with Cryptococcus gattii, 0.01 to 0.1 µg/mL (≈ 0.0264 to 0.264 µM). For the same molecule, the minimal effective concentration was 0.1 to 1 µg/mL in assay [2] and 0.01 to 0.1 µg/mL in assay [3].
`Nc1ncccc1-c1cc(Cc2ccc(C(O)c3ccccc3)cc2)no1` (centres unmarked) [compound 22, (4-((5-(2-aminopyridin-3-yl)isoxazol-3-yl)methyl)phenyl) (phenyl)methanol]: the minimal inhibitory concentration (MIC) fell in the range of 0.1 to 1 µg/mL (≈ 0.28 to 2.8 µM) in assay [1], 0.1 to 1 µg/mL (≈ 0.28 to 2.8 µM) with Candida albicans 90028 and 0.01 to 0.1 µg/mL (≈ 0.028 to 0.28 µM) in the assay with Cryptococcus gattii. The minimal effective concentration in assay [2] was over 1 µg/mL; in assay [3], 0.1 to 1 µg/mL.
Take `Nc1ncccc1-c1cc(Cc2ccc(COC3CCCCC3)cc2)no1` [compound 23, 3-(3-(4-((cyclohexyloxy)methyl)benzyl)isoxazol-5-yl)pyridin-2-amine]: the figures for the minimum inhibitory concentration (MIC) (in assay [1]; against Candida albicans 90028; in the assay with Cryptococcus gattii) were 0.1 to 1 µg/mL (≈ 0.275 to 2.75 µM), 0.1 to 1 µg/mL (≈ 0.275 to 2.75 µM) and 0.01 to 0.1 µg/mL (≈ 0.0275 to 0.275 µM), respectively. The minimal effective concentration in assay [2] and in assay [3] was 0.1 to 1 µg/mL throughout.
As to `Cc1cc(COc2ccc(Cc3cc(-c4cccnc4N)on3)cc2)no1` [compound 26, 3-(3-(4-((5-methylisoxazol-3-yl)methoxy)benzyl)isoxazol-5-yl)pyridin-2-amine], the minimal inhibitory concentration (MIC) (in assay [1]; against Candida albicans 90028; against Cryptococcus gattii) was 0.1 to 1 µg/mL (≈ 0.276 to 2.76 µM) throughout. For the same molecule, the minimal effective concentration was over 1 µg/mL in assay [2] and 0.01 to 0.1 µg/mL in assay [3].
Consider `Nc1ncccc1-c1cc(Cc2ccc(OCc3ccc4ccccc4n3)cc2)no1` [compound 27, 3-(3-(4-(quinolin-2-ylmethoxy)benzyl)isoxazol-5-yl)pyridin-2-amine], for which the MIC (in assay [1]; against Candida albicans 90028; against Cryptococcus gattii) was 0.1 to 1 µg/mL (≈ 0.245 to 2.45 µM) each time. The minimal effective concentration in assay [2] and in assay [3] was over 1 µg/mL each time.
Consider `Nc1ncccc1-c1cc(Cc2ccc(OCc3ncccn3)cc2)no1` [compound 28, 3-(3-(4-(pyrimidin-2-ylmethoxy)benzyl)isoxazol-5-yl)pyridin-2-amine], for which the MIC (in assay [1]; in the assay with Candida albicans 90028; in the assay on Cryptococcus gattii) was 0.1 to 1 µg/mL (≈ 0.278 to 2.78 µM) throughout. Also, the figures for the minimal effective concentration in assay [2] and in assay [3] were over 1 µg/mL and 0.1 to 1 µg/mL, respectively.
As to `Nc1ncccc1-c1cc(Cc2ccc(OCc3cnc4ccccc4n3)cc2)no1` [compound 30, 3-(3-(4-(quinoxalin-2-ylmethoxy)benzyl)isoxazol-5-yl)pyridin-2-amine], the MIC was over 1 µg/mL in assay [1], 0.1 to 1 µg/mL (≈ 0.244 to 2.44 µM) with Candida albicans 90028 and over 1 µg/mL against Cryptococcus gattii. Also, the minimal effective concentration was 0.1 to 1 µg/mL in assay [2] and over 1 µg/mL in assay [3].
In the case of `Nc1ncccc1-c1cc(Cc2ccc(CNc3cccc(F)n3)cc2)no1` [compound 31, N-(4-((5-(2-aminopyridin-3-yl)isoxazol-3-yl)methyl)benzyl)-6-fluoropyridin-2-amine], the values for the MIC (in assay [1]; against Candida albicans 90028; in the assay on Cryptococcus gattii) were 0.1 to 1 µg/mL (≈ 0.266 to 2.66 µM), 0.01 to 0.1 µg/mL (≈ 0.0266 to 0.266 µM) and 0.1 to 1 µg/mL (≈ 0.266 to 2.66 µM), respectively. Further, the minimal effective concentration fell in the range of 0.1 to 1 µg/mL in assay [2] and 0.01 to 0.1 µg/mL in assay [3].
On to `Nc1ncccc1-c1cc(Cc2ccc(CNc3ncccn3)cc2)no1` [compound 32, N-(4-((5-(2-aminopyridin-3-yl)isoxazol-3-yl)methyl)benzyl)pyrimidin-2-amine], for which the MIC in assay [1] fell in the range of 0.1 to 1 µg/mL (≈ 0.279 to 2.79 µM); against Candida albicans 90028, 0.01 to 0.1 µg/mL (≈ 0.0279 to 0.279 µM); in the assay on Cryptococcus gattii it was 0.1 to 1 µg/mL (≈ 0.279 to 2.79 µM). The figures for the minimal effective concentration in assay [2] and in assay [3] were 0.1 to 1 µg/mL and 0.01 to 0.1 µg/mL, respectively.
For the molecule `Nc1ncccc1-c1cc(Cc2ccc(CNc3nc(Cl)cs3)cc2)no1` [compound 34, N-(4-((5-(2-aminopyridin-3-yl)isoxazol-3-yl)methyl)benzyl)-4-chlorothiazol-2-amine], the figures for the MIC (in assay [1]; against Candida albicans 90028; in the assay with Cryptococcus gattii) were over 1 µg/mL, 0.01 to 0.1 µg/mL (≈ 0.0251 to 0.251 µM) and 0.1 to 1 µg/mL (≈ 0.251 to 2.51 µM), respectively. The minimal effective concentration in assay [2] and in assay [3] was 0.1 to 1 µg/mL throughout.
In the case of `Nc1ncccc1-c1cc(Cc2ccc(OCc3ccccn3)nc2)no1` [compound 35, 3-(3-((6-(pyridin-2-ylmethoxy)pyridin-3-yl)methyl)isoxazol-5-yl)pyridin-2-amine], the minimal inhibitory concentration (MIC) (in assay [1]; with Candida albicans 90028; in the assay on Cryptococcus gattii) was 0.01 to 0.1 µg/mL (≈ 0.0278 to 0.278 µM) each time. Also, the minimal effective concentration in assay [2] is over 1 µg/mL; in assay [3], 0.01 to 0.1 µg/mL.
As for `Nc1ncccc1-c1cc(Cc2ccc(OCc3cccnc3)nc2)no1` [compound 36, 3-(3-((6-(pyridin-3-ylmethoxy)pyridin-3-yl)methyl)isoxazol-5-yl)pyridin-2-amine], the minimal inhibitory concentration (MIC) (in assay [1]; with Candida albicans 90028; against Cryptococcus gattii) was 0.01 to 0.1 µg/mL (≈ 0.0278 to 0.278 µM) each time. Moreover, the minimal effective concentration in assay [2] is over 1 µg/mL; in assay [3] it was 0.01 to 0.1 µg/mL.
With `Nc1ncccc1-c1cc(Cc2ccc(OCc3ccncc3)nc2)no1` [compound 37, 3-(3-((6-(pyridin-4-ylmethoxy)pyridin-3-yl)methyl)isoxazol-5-yl)pyridin-2-amine], the MIC is at most 0.01 µg/mL in assay [1], 0.01 to 0.1 µg/mL (≈ 0.0278 to 0.278 µM) against Candida albicans 90028 and at most 0.01 µg/mL against Cryptococcus gattii. The minimal effective concentration was over 1 µg/mL in assay [2] and 0.01 to 0.1 µg/mL in assay [3].
As to `Cc1cc(COc2ccc(Cc3cc(-c4cccnc4N)on3)cn2)no1` [compound 38, 3-(3-((6-((5-methylisoxazol-3-yl)methoxy)pyridin-3-yl)methyl)isoxazol-5-yl)pyridin-2-amine], the minimum inhibitory concentration (MIC) (in assay [1]; with Candida albicans 90028; with Cryptococcus gattii) was 0.1 to 1 µg/mL (≈ 0.275 to 2.75 µM) each time. Also, the minimal effective concentration in assay [2] was in the range of 0.1 to 1 µg/mL; in assay [3] it was 0.01 to 0.1 µg/mL.
In the case of `Nc1ncccc1-c1cc(Cc2ccc(OCCc3ccccn3)nc2)no1` [compound 39, 3-(3-((6-(2-(pyridin-2-yl)ethoxy)pyridin-3-yl)methyl)isoxazol-5-yl)pyridin-2-amine], the minimum inhibitory concentration (MIC) (in assay [1]; against Candida albicans 90028; in the assay with Cryptococcus gattii) was 0.1 to 1 µg/mL (≈ 0.268 to 2.68 µM) in each case. Besides, the minimal effective concentration in assay [2] was over 1 µg/mL; in assay [3] it was 0.1 to 1 µg/mL.
For the molecule `Nc1ncccc1-c1cc(Cc2ccc(OCc3cccs3)nc2)no1` [compound 40, 3-(3-((6-(thiophen-2-ylmethoxy)pyridin-3-yl)methyl)isoxazol-5-yl)pyridin-2-amine], the figures for the MIC (in assay [1]; in the assay with Candida albicans 90028; against Cryptococcus gattii) were 0.01 to 0.1 µg/mL (≈ 0.0274 to 0.274 µM), 0.1 to 1 µg/mL (≈ 0.274 to 2.74 µM) and 0.01 to 0.1 µg/mL (≈ 0.0274 to 0.274 µM), respectively. The minimal effective concentration in assay [2] fell in the range of 0.1 to 1 µg/mL; in assay [3], 0.01 to 0.1 µg/mL.
